According to patent US20040081964A1, “Gene and sequence variation associated with sensing carbohydrate compounds and other sweeteners” (priority 2002, published 2004):
Read-outs that look alike come from different tables or passages of the source.

Tests used:
129.B6-Sac congenic mice = system: 129.B6-Sac congenic mice
Source text: (§1) Preferences for 10% ethanol for the same mouse strains were studied as described in Abstr. of the 23th RSA Meeting (June 2000, Denver, Colo.).

[1] = system: mouse strains with 'B6-like' or '129-like' haplotype of Gpr98
Source text: as §1

[2] = system: mice from inbred strains with two different haplotypes of the Sac gene; details: strain preferences known from Lush et al., cited from earlier work
[3] = strains with the 129-like haplotype of Sac, p=0.0015 vs B6-like
[4] = strains with the B6-like haplotype of Sac

Row | SMILES | consumption of 10% ethanol solution (129.B6-Sac congenic mice; congenic mice homozygous for the 194-kb donor fragment from the B6 strain) | consumption of 10% ethanol solution (129.B6-Sac congenic mice; congenic mice without the donor fragment, p<0.05, one-tailed t-test) | preference for 10% ethanol ([1]; strains with the '129-like' haplotype, n=10 strains, p<0.05, one-tailed t-test) | preference for 10% ethanol ([1]; strains with the 'B6-like' haplotype, n=14 strains) | sweetener preference [2, 3] | sweetener preference [2, 4]
1 | CCO [ethanol] | 1.50 ± 0.15 mL/day | 1.19 ± 0.11 mL/day | 12±2% | 20±4% |  | 
2 | OC[C@H]1O[C@@](CO)(O[C@H]2O[C@H](CO)[C@@H](O)[C@H](O)[C@H]2O)[C@@H](O)[C@@H]1O [sucrose] |  |  |  |  | 54±1% | 86±6%
3 | O=C1NS(=O)(=O)c2ccccc21 [saccharin] |  |  |  |  | 57±2% | 82±4%
